Experimental data: US10112926B2 (priority 2014, dated 2018)
pIC50: −log10 of the molar value. Structures can show the parent of a compound that is named as a salt. Where two headings read alike, the source gives them in different places.

Columns and labels:
PI 3-kinase alpha = PI 3-kinase alpha (Homo sapiens (Human), UniProt P42336); conditions: read-out: Assay A PI3Kα IC50
PI 3-kinase beta = PI 3-kinase beta (Homo sapiens (Human), UniProt P42338); conditions: read-out: Assay B PI3Kβ IC50
PI 3-kinase delta = PI 3-kinase delta (Homo sapiens (Human), UniProt O00329); conditions: read-out: Assay F PI3Kδ IC50
Vps34 = Vps34 (Homo sapiens (Human), UniProt Q8NEB9); conditions: read-out: Assay C VPS34 IC50
PI 4-kinase beta = PI 4-kinase beta (Homo sapiens (Human), UniProt Q9UBF8); conditions: read-out: Assay D PI4Kβ IC50
mTOR = mTOR (Homo sapiens (Human), UniProt P42345); conditions: read-out: Assay G mTOR IC50
[1] = target: PI 3-kinase gamma (U937 cells, MIP1α-stimulated AKT phosphorylation) (Homo sapiens (Human), UniProt P48736); conditions: read-out: Assay K2 PI3Kγ IC50
PI 3-kinase gamma (U937 cells, MIP1α-stimulated AKT phosphorylation), sequence (P48736 whole entry): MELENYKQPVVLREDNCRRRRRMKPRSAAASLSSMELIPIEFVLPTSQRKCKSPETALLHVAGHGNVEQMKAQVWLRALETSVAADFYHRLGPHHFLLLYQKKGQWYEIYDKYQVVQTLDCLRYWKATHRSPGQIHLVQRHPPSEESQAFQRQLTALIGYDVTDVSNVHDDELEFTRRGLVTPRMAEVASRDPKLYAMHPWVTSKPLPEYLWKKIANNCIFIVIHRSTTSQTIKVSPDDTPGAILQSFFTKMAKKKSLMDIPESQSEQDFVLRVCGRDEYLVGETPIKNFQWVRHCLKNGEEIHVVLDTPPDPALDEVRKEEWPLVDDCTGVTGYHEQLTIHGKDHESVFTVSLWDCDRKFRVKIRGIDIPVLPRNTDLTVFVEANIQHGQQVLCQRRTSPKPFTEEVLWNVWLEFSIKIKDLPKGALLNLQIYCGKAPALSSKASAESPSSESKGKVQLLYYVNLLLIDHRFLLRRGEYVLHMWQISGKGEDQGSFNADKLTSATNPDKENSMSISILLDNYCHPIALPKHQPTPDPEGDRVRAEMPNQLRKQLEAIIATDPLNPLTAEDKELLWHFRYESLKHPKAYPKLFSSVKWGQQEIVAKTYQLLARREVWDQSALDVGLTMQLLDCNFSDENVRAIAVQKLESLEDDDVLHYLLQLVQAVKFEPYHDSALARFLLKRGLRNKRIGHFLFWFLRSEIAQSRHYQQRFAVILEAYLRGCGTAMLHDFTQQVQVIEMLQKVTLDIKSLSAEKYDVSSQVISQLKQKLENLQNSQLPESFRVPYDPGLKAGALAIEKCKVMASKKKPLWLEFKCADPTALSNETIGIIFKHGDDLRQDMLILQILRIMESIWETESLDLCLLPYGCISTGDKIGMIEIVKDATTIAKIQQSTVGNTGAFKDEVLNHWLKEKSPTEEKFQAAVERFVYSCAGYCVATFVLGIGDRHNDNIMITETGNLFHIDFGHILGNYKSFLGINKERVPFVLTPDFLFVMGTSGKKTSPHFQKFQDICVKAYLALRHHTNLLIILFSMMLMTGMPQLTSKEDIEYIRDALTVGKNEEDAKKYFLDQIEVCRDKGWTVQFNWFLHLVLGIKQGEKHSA

PI 3-kinase gamma = PI 3-kinase gamma (Homo sapiens (Human), UniProt P48736)
PI 3-kinase gamma, sequence (P48736 whole entry): as above

[2] = target: PI 3-kinase alpha (Rat-1 pBABEpuro Myr-HA-hp110 alpha cells) (Homo sapiens (Human), UniProt P42336); experiment: cell-based; conditions: Assay H PI3Kα IC50
PI 3-kinase alpha (Rat-1 pBABEpuro Myr-HA-hp110 alpha cells), sequence (P42336 whole entry, looked up): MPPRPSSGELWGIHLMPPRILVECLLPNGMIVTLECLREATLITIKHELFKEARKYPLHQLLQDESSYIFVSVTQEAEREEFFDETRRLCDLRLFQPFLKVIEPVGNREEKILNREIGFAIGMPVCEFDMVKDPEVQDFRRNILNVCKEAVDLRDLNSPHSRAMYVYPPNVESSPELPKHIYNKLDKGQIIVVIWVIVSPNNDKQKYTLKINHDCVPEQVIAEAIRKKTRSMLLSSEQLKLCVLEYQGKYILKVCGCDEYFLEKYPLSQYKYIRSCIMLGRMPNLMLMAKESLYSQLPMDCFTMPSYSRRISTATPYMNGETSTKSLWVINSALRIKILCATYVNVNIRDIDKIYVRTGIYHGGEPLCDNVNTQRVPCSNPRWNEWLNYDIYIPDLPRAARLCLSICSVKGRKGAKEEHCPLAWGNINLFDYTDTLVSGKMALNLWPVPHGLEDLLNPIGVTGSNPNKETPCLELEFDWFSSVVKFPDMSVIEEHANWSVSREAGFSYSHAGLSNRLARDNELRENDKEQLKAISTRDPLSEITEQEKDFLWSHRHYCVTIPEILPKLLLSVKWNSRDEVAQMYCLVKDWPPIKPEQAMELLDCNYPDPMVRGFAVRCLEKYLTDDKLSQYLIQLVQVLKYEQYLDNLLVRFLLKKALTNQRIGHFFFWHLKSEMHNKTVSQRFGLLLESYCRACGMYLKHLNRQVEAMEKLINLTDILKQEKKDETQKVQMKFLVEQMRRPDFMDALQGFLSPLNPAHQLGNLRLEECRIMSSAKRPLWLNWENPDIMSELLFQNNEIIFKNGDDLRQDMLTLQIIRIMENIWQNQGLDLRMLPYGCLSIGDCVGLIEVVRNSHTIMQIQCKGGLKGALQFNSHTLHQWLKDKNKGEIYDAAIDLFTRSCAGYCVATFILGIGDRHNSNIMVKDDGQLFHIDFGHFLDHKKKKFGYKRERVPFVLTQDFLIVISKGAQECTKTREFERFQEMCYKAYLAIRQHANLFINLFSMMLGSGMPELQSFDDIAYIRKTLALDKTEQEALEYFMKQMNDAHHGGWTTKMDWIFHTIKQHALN
PI 3-kinase alpha (Rat-1 pBABEpuro Myr-HA-hp110 alpha cells), sequence (Q63787 whole entry partner, looked up): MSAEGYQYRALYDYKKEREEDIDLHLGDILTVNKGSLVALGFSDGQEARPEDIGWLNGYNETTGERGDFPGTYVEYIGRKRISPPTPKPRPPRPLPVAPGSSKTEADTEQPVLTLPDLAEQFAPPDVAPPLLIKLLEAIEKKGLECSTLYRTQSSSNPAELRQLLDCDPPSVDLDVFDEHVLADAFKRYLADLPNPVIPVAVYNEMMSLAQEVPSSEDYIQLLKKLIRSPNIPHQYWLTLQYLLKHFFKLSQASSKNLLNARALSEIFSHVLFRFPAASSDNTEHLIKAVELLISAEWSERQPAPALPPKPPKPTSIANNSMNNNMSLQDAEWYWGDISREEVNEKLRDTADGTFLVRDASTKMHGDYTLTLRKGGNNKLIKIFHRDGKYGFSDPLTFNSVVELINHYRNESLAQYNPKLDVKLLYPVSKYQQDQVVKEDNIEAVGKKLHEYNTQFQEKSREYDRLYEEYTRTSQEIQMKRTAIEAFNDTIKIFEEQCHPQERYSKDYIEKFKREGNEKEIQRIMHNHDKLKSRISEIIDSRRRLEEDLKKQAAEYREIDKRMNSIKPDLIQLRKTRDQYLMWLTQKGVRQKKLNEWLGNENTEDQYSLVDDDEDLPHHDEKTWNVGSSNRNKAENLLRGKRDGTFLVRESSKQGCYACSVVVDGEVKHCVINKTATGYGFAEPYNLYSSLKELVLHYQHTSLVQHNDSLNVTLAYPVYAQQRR
From the text: (§1) Cellular Assays for PI 3-Kinase Alpha (H1), Beta (I1) and Delta (J1): Surefire Format
(§2) The brand name SureFire denotes AlphaScreen assays that are adapted to quantify the phosphorylation of endogenous cellular proteins in cell lysates, by using matched antibody pairs, which consist of an anti-phospho-kinase and an anti-kinase antibody. The assay allows characterization of kinase signaling in cells as well as measurement of kinase inhibitor effects.
(§3) The p-Akt (S473) SureFire assay measures the phosphorylation of endogenous cellular Akt 1/2 at Ser473 in cell lysates. Using Rat-1 cells stably expressing myr-HA-tagged versions of the human PI3Kdelta, PI3Kalpha, or PI3Kbeta p110 catalytic subunit isoforms, the assay was developed as a two-plate protocol in a 384-well format.
(§4) For compound testing, the cells were seeded at a density of 4000 (Rat-1_PI3Kdelta), 7500 (Rat-1_PI3Kalpha), or 6200 (Rat-1_PI3Kbeta) cells in 20 μl complete growth medium into cell culture treated 384-well plates and were grown at 37° C./5% CO2/90% humidity for 24 h. Shortly before compound transfer, the complete medium was removed, 30 μl assay buffer (DMEM high glucose, 1×MEM NEAA, 10 mM HEPES, 2 mM L-glutamine, 0.1% (w/v) BSA) was added and 10 μl of the compound predilutions were transferred to the cells. […]

[3] = target: T1, PI 3-kinase beta (Rat-1 pBABEpuro Myr-HA-hp110 beta cells) (Homo sapiens (Human), UniProt P42338); experiment: cell-based; conditions: Assay I PI3Kβ IC50
T1 sequence (P42338 whole entry, looked up): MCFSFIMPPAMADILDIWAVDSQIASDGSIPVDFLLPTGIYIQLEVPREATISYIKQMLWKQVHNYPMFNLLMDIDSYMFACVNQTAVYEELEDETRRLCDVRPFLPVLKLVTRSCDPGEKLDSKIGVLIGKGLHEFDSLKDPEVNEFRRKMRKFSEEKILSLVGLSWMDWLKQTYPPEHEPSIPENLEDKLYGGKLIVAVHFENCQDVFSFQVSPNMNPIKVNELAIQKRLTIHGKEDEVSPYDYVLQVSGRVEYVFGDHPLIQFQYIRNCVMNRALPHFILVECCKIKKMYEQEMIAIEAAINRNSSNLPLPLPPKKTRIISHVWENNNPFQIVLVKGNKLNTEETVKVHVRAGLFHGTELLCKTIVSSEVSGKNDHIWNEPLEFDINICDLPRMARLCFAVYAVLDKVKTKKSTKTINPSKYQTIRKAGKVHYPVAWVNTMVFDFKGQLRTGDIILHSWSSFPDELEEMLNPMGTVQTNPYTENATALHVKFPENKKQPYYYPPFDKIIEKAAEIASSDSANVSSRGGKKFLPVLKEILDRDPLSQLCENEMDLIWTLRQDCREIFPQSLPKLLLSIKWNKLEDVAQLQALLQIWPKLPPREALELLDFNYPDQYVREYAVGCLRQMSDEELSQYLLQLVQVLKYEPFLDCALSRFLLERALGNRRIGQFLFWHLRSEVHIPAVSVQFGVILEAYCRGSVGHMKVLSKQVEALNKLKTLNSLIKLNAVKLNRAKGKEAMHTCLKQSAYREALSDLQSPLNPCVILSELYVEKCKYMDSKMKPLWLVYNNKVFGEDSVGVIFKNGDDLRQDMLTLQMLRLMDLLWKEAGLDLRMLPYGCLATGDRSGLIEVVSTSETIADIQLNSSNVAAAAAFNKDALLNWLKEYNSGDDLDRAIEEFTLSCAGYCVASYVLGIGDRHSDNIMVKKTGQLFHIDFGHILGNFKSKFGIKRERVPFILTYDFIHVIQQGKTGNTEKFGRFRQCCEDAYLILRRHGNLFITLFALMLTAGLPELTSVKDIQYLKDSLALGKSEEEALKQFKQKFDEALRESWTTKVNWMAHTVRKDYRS
T1 sequence (Q63787 whole entry partner, looked up): as the sequence (Q63787 whole entry partner, looked up) above
From the text: as §1, §2, §3, §4

[4] = target: T1, PI 3-kinase beta (Rat-1 pBABEpuro Myr-HA-hp110 beta cells); experiment: cell-based
Method: Cellular Assays for PI 3-Kinase Alpha (H2), Beta (I2) and Delta (J2): HTRF (Homogeneous Time Resolved Fluorescence) Format
All cell lines were cultivated in complete growth medium (DMEM high glucose GlutaMAX™ Pyruvate, 10% (v/v) fetal bovine serum, 0.1 mM MEM NEAA, 25 mM HEPES, puromycin 10 μg/mL, 100 U/ml Penicillin, 100 μg/ml Streptomycin) to 90% confluency at 37° C./5% CO2/90% humidity in a humidified CO2 incubator and were split twice a week.
Semi-automated preparation of cell lysates: For low (inhibited) controls, 0.9 mM NVP-BGT226-AF-1 in 90% (v/v) DMSO was added to the compound master plate. For compound testing, the cells were seeded at a density of 4000 (Rat-1_PI3Kdelta), 8000 (Rat-1_PI3Kalpha), or 6500 (Rat-1_PI3Kbeta) cells in 30 μl complete growth medium into cell culture treated 384-well plates and were grown at 37° C./5% CO2/90% humidity for 24 h. 10 μl of the compound predilutions were transferred to the cells. After treatment with compound for 1 h, medium was removed and cells were lysed by the addition of 20 μl lysis buffer supplemented with blocking buffer. Detection of p-AKT(Ser473) was performed with the HTRF pAKT (Ser473) assay kit according to the manufacturer's instructions using 16 μl of cell lysate in a total detection volume of 20 μl.

PI 3-kinase alpha, sequence (P42336 whole entry, looked up): as the sequence (P42336 whole entry, looked up) above
PI 3-kinase alpha, sequence (P27986 whole entry partner, looked up): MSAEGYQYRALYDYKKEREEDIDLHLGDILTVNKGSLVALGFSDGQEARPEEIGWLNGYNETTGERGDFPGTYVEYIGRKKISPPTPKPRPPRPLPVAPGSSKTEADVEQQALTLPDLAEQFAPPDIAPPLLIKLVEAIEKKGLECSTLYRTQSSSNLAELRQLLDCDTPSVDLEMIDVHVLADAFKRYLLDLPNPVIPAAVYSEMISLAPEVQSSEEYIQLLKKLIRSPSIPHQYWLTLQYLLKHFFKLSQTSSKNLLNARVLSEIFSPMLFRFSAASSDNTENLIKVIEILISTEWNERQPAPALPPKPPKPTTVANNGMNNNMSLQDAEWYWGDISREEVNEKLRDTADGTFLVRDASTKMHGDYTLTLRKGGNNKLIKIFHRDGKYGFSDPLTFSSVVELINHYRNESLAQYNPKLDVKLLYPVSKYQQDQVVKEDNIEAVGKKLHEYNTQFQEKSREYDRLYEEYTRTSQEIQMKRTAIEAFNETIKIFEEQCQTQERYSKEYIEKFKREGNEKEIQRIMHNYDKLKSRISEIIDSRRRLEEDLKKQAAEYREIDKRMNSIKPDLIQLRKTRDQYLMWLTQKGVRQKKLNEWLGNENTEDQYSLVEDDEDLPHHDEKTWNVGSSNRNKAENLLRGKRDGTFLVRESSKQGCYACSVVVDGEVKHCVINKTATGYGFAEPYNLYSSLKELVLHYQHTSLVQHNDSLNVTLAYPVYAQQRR
PI 3-kinase beta, sequence (P42338 whole entry, looked up): as the sequence (P42338 whole entry, looked up) above
PI 3-kinase beta, sequence (P27986 whole entry partner, looked up): as the sequence (P27986 whole entry partner, looked up) above

SMILES	pIC50 (PI 3-kinase alpha)	pIC50 (PI 3-kinase beta)	pIC50 (PI 3-kinase delta)	pIC50 (Vps34)	pIC50 (PI 4-kinase beta)	pIC50 (mTOR)	pIC50 [1]	activity in assay E (PI 3-kinase gamma)	pIC50 [2]	pIC50 [3]	pIC50 [4]
Cc1ncc(-c2cc(-c3cc(S(=O)(=O)N4CC(CO)C4)ccc3C)cnc2N)s1 [Example 83.1, (1-((3-(6-Amino-5-(2-methylthiazol-5-yl)pyridin-3-yl)-4-methylphenyl)sulfonyl)azetidin-3-yl)methanol]	6.40	5.60	5.89								
Cc1cccc(NS(=O)(=O)c2ccc(C)c(-c3cnc(N)c(-c4cnn(C)c4)c3)c2)n1 [Example 30, 3-(6-Amino-5-(1-methyl-1H-pyrazol-4-yl)pyridin-3-yl)-4-methyl-N-(6-methylpyridin-2-yl)benzenesulfonamide]	6.48	5.82		< 5.00	5.51	5.33					
Cc1noc(-c2cc(-c3cc(S(=O)(=O)N[C@@H]4CCNC(=O)C4)ccc3C)cnc2N)n1 [Example 37.25, (R)-3-(6-Amino-5-(3-methyl-1,2,4-oxadiazol-5-yl)pyridin-3-yl)-4-methyl-N-(2-oxopiperidin-4-yl)benzenesulfonamide]	5.42	< 5.00		< 5.00	< 5.00	< 5.00					
Cc1cc(-c2cc(-c3cc(S(=O)(=O)NCC4(O)CCC4)ccc3C)cnc2N)on1 [Example 37.35, 3-(6-Amino-5-(3-methylisoxazol-5-yl)pyridin-3-yl)-N-((1-hydroxycyclobutyl)methyl)-4-methylbenzenesulfonamide]				< 5.00		< 5.00	7.00				
Cc1cc(-c2cnc(N)c(-c3nc(C)no3)c2)cc(S(=O)(=O)NCC(C)(C)O)c1 [3-(6-amino-5-(3-methyl-1,2,4-oxadiazol-5-yl)pyridin-3-yl)-N-(2-hydroxy-2-methylpropyl)-5-methylbenzenesulfonamide]								inactive			
Cc1noc(-c2cc(-c3cc(C(F)(F)F)cc(S(=O)(=O)NCC(C)(C)O)c3)cnc2N)n1 [3-(6-amino-5-(3-methyl-1,2,4-oxadiazol-5-yl)pyridin-3-yl)-N-(2-hydroxy-2-methylpropyl)-5-(trifluoromethyl)benzenesulfonamide]								inactive			
Cc1cc(-c2cc(-c3cc(S(=O)(=O)N[C@H]4CC[C@H](O)CC4)ccc3C)cnc2N)ccn1 [Example 4.3, trans 3-(2-Amino-2′-methyl-[3,4′-bipyridin]-5-yl)-N-(4-hydroxycyclohexyl)-4-methyl-benzenesulfonamide]	6.59	5.14		< 5.00	5.77	5.14					
Cc1noc(-c2cc(-c3cc(S(=O)(=O)NCC(C)(C)O)c(C)cc3C)cnc2N)n1 [Example 100]	6.59	5.65		< 5.00	5.37				5.38	< 5.00	
Cc1cc(-c2cc(-c3cc(S(=O)(=O)N4CC[C@H](N(C)C)C4)ccc3C)cnc2N)on1 [Example 19.22, (S)-5-(5-((3-(dimethylamino)pyrrolidin-1-yl)sulfonyl)-2-methylphenyl)-3-(3-methylisoxazol-5-yl)pyridin-2-amine acetic acid salt]	5.70	5.24		< 5.00	5.07						
Cc1ncc(-c2cc(-c3cc(S(=O)(=O)NC4CC5(CC(O)C5)C4)ccc3C)cnc2N)s1 (stereo not shown) [Example 28, 3-(6-Amino-5-(2-methylthiazol-5-yl)pyridin-3-yl)-N-(6-hydroxyspiro[3.3]heptan-2-yl)-4-methylbenzenesulfonamide]	7.30	6.35		5.70	6.17						
Cc1ncc(-c2cc(-c3cc(S(=O)(=O)NCC(C)(C)CO)ccc3C)cnc2N)s1 [Example 83.4, 3-(6-Amino-5-(2-methylthiazol-5-yl)pyridin-3-yl)-N-(3-hydroxy-2,2-dimethylpropyl)-4-methylbenzenesulfonamide]	6.46	5.68		5.66	5.89						
Cc1ncc(-c2cc(-c3cc(S(=O)(=O)NC(CO)C(F)(F)F)ccc3C)cnc2N)o1 (stereo not shown) [Example 114.2, 3-(6-amino-5-(2-methyloxazol-5-yl)pyridin-3-yl)-4-methyl-N-(1,1,1-trifluoro-3-hydroxypropan-2-yl)benzenesulfonamide]	6.39	5.55		5.36	5.64						
Cc1ccc(S(=O)(=O)NC2CC3(CC(O)C3)C2)cc1-c1cnc(N)c(-c2cn(C)nc2C)c1 (stereo not shown) [Example 26, 3-(6-Amino-5-(1,3-dimethyl-1H-pyrazol-4-yl)pyridin-3-yl)-N-(6-hydroxyspiro[3.3]heptan-2-yl)-4-methylbenzenesulfonamide]	6.66	5.52		< 5.00	5.47	6.49					
Cc1ccc(S(=O)(=O)N[C@H]2CC[C@H](O)CC2)cc1-c1cnc(N)c(-c2cnn(C)c2)c1 [Example 4.1, trans 3-(6-Amino-5-(1-methyl-1H-pyrazol-4-yl)pyridin-3-yl)-N-(4-hydroxycyclohexyl)-4-methylbenzene-sulfonamide]	6.55	5.80		5.18	5.41	5.02					
Cc1ncc(-c2cc(-c3cc(S(=O)(=O)NC4CCC(O)(C(F)(F)F)C4)ccc3C)cnc2N)o1 (stereo not shown) [Example 114.4, 3-(6-amino-5-(2-methyloxazol-5-yl)pyridin-3-yl)-N-(3-hydroxy-3-(trifluoromethyl)cyclo-pentyl)-4-methylbenzenesulfon-amide]	7.10	5.92		5.92	6.20						
Cc1noc(-c2cc(-c3cc(S(=O)(=O)NCC(C)(C)O)ccc3C(F)(F)F)cnc2N)n1 [3-(6-amino-5-(3-methyl-1,2,4-oxadiazol-5-yl)pyridin-3-yl)-N-(2-hydroxy-2-methylpropyl)-4-(trifluoromethyl)benzenesulfonamide]								inactive			
Cc1ncc(-c2cc(-c3cc(S(=O)(=O)NCC4(O)COC4)ccc3C)cnc2N)s1 [Example 83.3, 3-(6-amino-5-(2-methylthiazol-5-yl)pyridin-3-yl)-N-((3-hydroxyoxetan-3-yl)methyl)-4-methylbenzenesulfonamide]	6.24	5.52	6.05	5.01	5.77						
Cc1nnc(-c2cc(-c3cc(S(=O)(=O)NCCC(C)(C)O)ccc3C)cnc2N)o1 [Example 5.6, 3-(6-Amino-5-(5-methyl-1,3,4-oxa-diazol-2-yl)pyridin-3-yl)-N-(3-hydroxy-3-methylbutyl)-4-methylbenzenesulfon-amide]	6.15	5.35		< 5.00	5.11	< 5.00					
Cc1noc(-c2cc(-c3cc(S(=O)(=O)NCCN)ccc3C)cnc2N)n1 [Example 37.29, 3-(6-Amino-5-(3-methyl-1,2,4-oxadiazol-5-yl)pyridin-3-yl)-N-(2-aminoethyl)-4-methylbenzenesulfonamide]	6.04	6.04		< 5.00	5.15	< 5.00					
Cc1cc(-c2cc(-c3cc(S(=O)(=O)N4C[C@H](C)[C@@H](O)C4)ccc3C)cnc2N)on1 (relative stereo) [Example 101.3, trans-1-((3-(6-amino-5-(3-methylisoxazol-5-yl)pyridin-3-yl)-4-methylphenyl)sulfonyl)-4-methylpyrrolidin-3-ol]		5.29		< 5.00	5.44						< 5.00
Cc1ccc(S(=O)(=O)N[C@H]2CC[C@H](O)CC2)cc1-c1cnc(N)c(-c2nc(CC(F)(F)F)no2)c1 [Example 78, trans-3-(6-Amino-5-(3-(2,2,2-trifluoroethyl)-1,2,4-oxadiazol-5-yl)pyridin-3-yl)-N-((1r,4r)-4-hydroxycyclohexyl)-4-methylbenzenesulfonamide]		5.60		< 5.00	6.31					< 5.00	
Cc1ncc(-c2cc(-c3cc(S(=O)(=O)NCC4COC4)ccc3C)cnc2N)s1 [Example 83.2, 3-(6-Amino-5-(2-methylthiazol-5-yl)pyridin-3-yl)-4-methyl-N-(oxetan-3-ylmethyl)benzenesulfonamide]	6.40	5.21		5.21	5.62						
Cc1ncc(-c2cc(-c3cc(S(=O)(=O)N[C@H]4CCC[C@H](O)C4)ccc3C)cnc2N)o1 [Example 112, 3-(6-amino-5-(2-methyloxazol-5-yl)pyridin-3-yl)-N-((1S,3S)-3-hydroxycyclohexyl)-4-methylbenzenesulfonamide]	6.85	6.18		5.46	6.14						
